Columns and labels:
[1] = molecular target: T1, HCV NS3/4A protease complex, BMS strain (genotype 1a) (Hepatitis C virus genotype 1a, UniProt P27958, C1454S/C1711G); assay: Recombinant HCV NS3/4A protease complex FRET peptide assay (BMS strain); type: biochemical; settings: IC50, HCV NS3/4A protease FRET assay in vitro; IC50 ranges
T1 construct: recombinant HCV NS3/4A protease complex (amino'acids 1027 to 1711); inferred from the pET21b vector and Ni-NTA purification; made in house; host or cells: Escherichia coli BL21 (DE3), pET21b
T1 sequence (P27958 1027-1711 C1454S/C1711G, one chain of several): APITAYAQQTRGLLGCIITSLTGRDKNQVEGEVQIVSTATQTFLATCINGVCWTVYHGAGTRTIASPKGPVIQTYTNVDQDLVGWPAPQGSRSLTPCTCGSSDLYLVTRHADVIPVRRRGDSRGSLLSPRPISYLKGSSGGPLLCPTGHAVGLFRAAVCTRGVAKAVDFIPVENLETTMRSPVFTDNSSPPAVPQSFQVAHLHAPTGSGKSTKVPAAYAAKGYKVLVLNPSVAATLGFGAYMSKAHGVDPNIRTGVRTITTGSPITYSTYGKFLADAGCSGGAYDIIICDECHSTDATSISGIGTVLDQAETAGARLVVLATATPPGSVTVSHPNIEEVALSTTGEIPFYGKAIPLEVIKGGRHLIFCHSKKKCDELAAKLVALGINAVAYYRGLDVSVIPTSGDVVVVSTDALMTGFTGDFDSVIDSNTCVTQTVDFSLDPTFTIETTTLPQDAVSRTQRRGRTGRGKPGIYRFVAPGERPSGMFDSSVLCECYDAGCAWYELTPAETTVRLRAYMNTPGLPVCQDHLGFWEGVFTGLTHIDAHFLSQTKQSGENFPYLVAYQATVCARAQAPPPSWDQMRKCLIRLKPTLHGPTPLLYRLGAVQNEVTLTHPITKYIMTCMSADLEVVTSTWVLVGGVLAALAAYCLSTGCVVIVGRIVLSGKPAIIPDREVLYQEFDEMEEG
Text: The purpose of this in vitro assay was to measure the inhibition of HCV NS3 protease complexes, derived from the BMS, H77C or J4L6S strains, as described below, by compounds of the present invention. This assay provides an indication of how effective compounds of the present invention would be in inhibiting HCV proteolytic activity.
Serum from an HCV-infected patient was obtained from Dr. T. Wright, San Francisco Hospital. An engineered full-length cDNA (compliment deoxyribonucleic acid) template of the HCV genome (BMS strain) was constructed from DNA fragments obtained by reverse transcription-PCR (RT-PCR) of serum RNA (ribonucleic acid) and using primers selected on the basis of homology between other genotype 1a strains. From the determination of the entire genome sequence, a genotype 1a was assigned to the HCV isolate according to the classification of Simmonds et al. (See P Simmonds, K A Rose, S Graham, S W Chan, F McOmish, B C Dow, E A Follett, P L Yap and H Marsden, J. Clin. Microbiol., 31 (6), 1493-1503 (1993)). […] The infectious clones, H77C (1a genotype) and J4L6S (1b genotype) were obtained from R. Purcell (N1H) and the sequences are published in Genbank (AAB67036, see Yanagi, M., Purcell, R. H., Emerson, S. U. and Bukh, J. Proc. Natl. Acad. Sci. U.S.A. 94 (16), 8738-8743 (1997); AF054247, see Yanagi, M., St Claire, M., Shapiro, M., Emerson, S. U., Purcell, R. H. and Bukh, J, Virology 244 (1), 161-172. (1998)).
The BMS, H77C and J4L6S strains were used for production of recombinant NS3/4A protease complexes. DNA encoding the recombinant HCV NS3/4A protease complex (amino'acids 1027 to 1711) for these strains were manipulated as described by P. Gallinari et al. (see Gallinari P, Paolini C, Brennan D, Nardi C, Steinkuhler C, De Francesco R. Biochemistry. 38 (17):5620-32, (1999)). Briefly, a three-lysine solubilizing tail was added at the 3′-end of the NS4A coding region. The cysteine in the P1 position of the NS4A-NS4B cleavage site (amino acid 1711) was changed to a glycine to avoid the proteolytic cleavage of the lysine tag. Furthermore, a cysteine to serine mutation was introduced by PCR at amino acid position 1454 to prevent the autolytic cleavage in the NS3 helicase domain. The variant DNA fragment was cloned in the pET21b bacterial expression vector (Novagen)and the NS3/4A complex was expressed in Escherichia. coli strain BL21 (DE3) (Invitrogen) following the protocol described by P. Gallinari et al. (see Gallinari P, Brennan D, Nardi C, Brunetti M, Tomei L, Steinkuhler C, De Francesco R., J. Virol. 72 (8):6758-69 (1998)) with modifications. Briefly, NS3/4A expression was induced with 0.5 mM Isopropyl β-D-1-thiogalactopyranoside (IPTG) for 22 hr at 20° C. A typical fermentation (10L) yielded approximately 80 g of wet cell paste. The cells were resuspended in lysis buffer (10 mL/g) consisting of 25 mM N-(2-Hydroxyethyl)Piperazine-N′-(2-Ethane Sulfonic acid) (HEPES), pH 7.5, 20% glycerol, 500 mM Sodium Chloride (NaCl), 0.5% Triton-X100, 1 ug/ml lysozyme, 5 mM Magnesium Chloride (MgCl2), 1 ug/ml Dnasel, 5 mM β-Mercaptoethanol (OME), Protease inhibitor-Ethylenediamine Tetraacetic acid (EDTA) free (Roche), homogenized and incubated for 20 mins at 4° C. The homogenate was sonicated and clarified by ultra-centrifugation at 235000 g for 1 hr at 4° C. Imidazole was added to the supernatant to a final concentration of 15 mM and the pH adjusted to 8.0. The crude protein extract was loaded on a Nickel-Nitrilotriacetic acid (Ni-NTA) column pre-equilibrated with buffer B (25 mM HEPES, pH 8.0, 20% glycerol, 500 mM NaCl, 0.5% Triton-X100, 15 mM imidazole, 5 mM βME). The sample was loaded at a flow rate of 1 mL/min. The column was washed with 15 column volumes of buffer C (same as buffer B except with 0.2% Triton-X100). The protein was eluted with 5 column volumes of buffer D (same as buffer C except with 200 mM Imidazole). […]

[2] = system: HCV replicon in Huh7 cells; assay: HCV replicon cell-based assay (replicon FRET assay); set-up: species or system HCV strain 1B; settings: Hepatitis C virus, Huh-7, HCV replicon cell assay; EC50 ranges
Text: An HCV replicon whole cell system was established as described by Lohmann V, Korner F, Koch J, Herian U, Theilmann L, Bartenschlager R., Science 285 (5424):110-3 (1999). This system enabled us to evaluate the effects of our HCV Protease compounds on HCV RNA replication. Briefly, using the HCV strain 1B sequence described in the Lohmann paper (Assession number:AJ238799), an HCV cDNA was generated encoding the 5′ internal ribosome entry site (IRES), the neomycin resistance gene, the EMCV (encephalomyocarditis viurs)-IRES and the HCV nonstructural proteins, NS3-NS5B, and 3′ non-translated region (NTR). In vitro transcripts of the cDNA were transfected into the human hepatoma cell line, Huh7. […] Resulting cell lines were characterized for positive and negative strand RNA production and protein production over time.
Huh7 cells, constitutively expressing the HCV replicon, were grown in Dulbecco's Modified Eagle Media (DMEM) containing 10% Fetal calf serum (FCS) and 1 mg/ml G418 (Gibco-BRL). Cells were seeded the night before (1.5×10^4 cells/well) in 96-well tissue-culture sterile plates. Compound and no compound controls were prepared in DMEM containing 4% FCS, 1:100 Penicillin/Streptomysin, 1:100 L-glutamine and 5% DMSO in the dilution plate (0.5% DMSO final concentration in the assay). Compound/DMSO mixes were added to the cells and incubated for 4 days at 37° C. After 4 days, plates were rinsed thoroughly with Phosphate-Buffered Saline (PBS) (3 times 150 μl). The cells were lysed with 25 μl of a lysis assay reagent containing the FRET peptide (RET S1, as described for the in vitro enzyme assay). The lysis assay reagent was made from 5× cell Luciferase cell culture lysis reagent(Promega #E153A) diluted to 1× with distilled water, NaCl added to 150 mM final, the FRET peptide diluted to 10 μM final from a 2 mM stock in 100% DMSO. The plate was then placed into the Cytofluor 4000 instrument which had been set to 340 nm excitation/490 emission, automatic mode for 21 cycles and the plate read in a kinetic mode. EC50 determinations were carried out as described for the IC50 determinations.

Row | Structure (SMILES) | IC50 [1] [nM] | EC50 [2] [nM]
1 | COc1ccc2c(O[C@@H]3C[C@H]4C(=O)N[C@]5(C(=O)NS(=O)(=O)C6CC6)C[C@H]5CCCCCCC[C@H](NC(=O)OCC(C)(C)C)C(=O)N4C3)cc(-c3ccccc3)nc2c1 [Compound 22, (1S,4R,6R,14S,18R)-[4-Cyclopropanesulfonylaminocarbonyl-18-(7-methoxy-2-phenylquinolin-4-yloxy)-2,15-dioxo-3,16-diazatricyclo[14.3.0.0^4,6]-nonadec-14-yl]carbamic acid 2,2-dimethylpropyl ester] | < 50 | < 50
2 | COc1ccc2c(O[C@@H]3C[C@H]4C(=O)N[C@]5(C(=O)NS(=O)(=O)C6CC6)CC5CCCCCCC[C@H](NC(=O)OC5CCOCC5)C(=O)N4C3)cc(-c3ccccc3)nc2c1 (stereo partly drawn) [Compound 23, (1S,4R,6R,14S,18R)-[4-Cyclopropanesulfonyl-aminocarbonyl-18-(7-methoxy-2-phenylquinolin-4-yloxy)-2,15-dioxo-3,16-diazatricyclo[14.3.0.0^4,6]nonadec-14-yl]carbamic acid tetrahydro[4H]pyran-4-yl ester] | < 50 | < 50
3 | COc1ccc2c(O[C@@H]3C[C@H]4C(=O)N[C@]5(C(=O)NS(=O)(=O)C6CC6)CC5CCCCCC[C@H](NC(=O)CC5CC5)C(=O)N4C3)cc(-c3ccccc3)nc2c1 (stereo partly drawn) [Compound 24, (1S,4R,6R,14S,17R)-N-[4-Cyclopropanesulfonylaminocarbonyl-17-(7-methoxy-2-phenylquinolin-4-yloxy)-2,14-dioxo-3,15-diazatricyclo[13.3.0.0^4,6]-octadec-13-yl]-2-cyclopropylacetamide] | < 50 | < 50
4 | COc1ccc2c(O[C@@H]3C[C@H]4C(=O)N[C@]5(C(=O)NS(=O)(=O)C6CC6)CC5CCCCCC[C@H](NC(=O)OC5CCCC5)C(=O)N4C3)cc(-c3ccccc3)nc2c1 (stereo partly drawn) [Compound 25, (1S,4R,6R,14S,17R)-[4-Cyclopropanesulfonylaminocarbonyl-17-(7-methoxy-2-phenylquinolin-4-yloxy)-2,14-dioxo-3,15-diazatricyclo[13.3.0.0^4,6]octa-dec-13-yl]carbamic acid cyclopentyl ester] | < 50 | < 50
5 | COc1ccc2c(O[C@@H]3C[C@H]4C(=O)N[C@]5(C(=O)NS(=O)(=O)C6CC6)CC5CCCCCC[C@H](NC(=O)O[C@H]5CCOC5)C(=O)N4C3)cc(-c3ccccc3)nc2c1 (stereo partly drawn) [Compound 26, (1S,4R,6R,14S,17R,3′S)-[4-Cyclopropanesulfonyl-aminocarbonyl-17-(7-methoxy-2-phenylquinolin-4-yloxy)-2,14-dioxo-3,15-diazatricyclo[13.3.0.0^4,6]-octadec-13-yl]-carbamic acid tetrahydrofuran-3′-yl ester] | < 50 | < 50
6 | COc1ccc2c(O[C@@H]3C[C@H]4C(=O)N[C@]5(C(=O)NS(=O)(=O)C6CC6)C[C@H]5/C=C\CCCCC[C@H](NC(=O)OC(C)(C)C)C(=O)N4C3)cc(-c3csc(C(C)C)n3)nc2c1 [Compound 27] | < 50 | < 50
7 | COc1ccc2c(O[C@@H]3C[C@H]4C(=O)N[C@]5(C(=O)NS(=O)(=O)C6CC6)C[C@H]5/C=C\CCCCC[C@H](NC(=O)OC(C)(C)C)C(=O)N4C3)cc(-c3csc(NC(C)=O)n3)nc2c1 [Compound 28, (1S,4R,6S,14S,18R)-7-cis-{18-[2-(2-Acetylaminothiazol-4-yl)-7-methoxyquinolin-4-yloxy]-4-cyclopropanesulfonylaminocarbonyl-2,15-dioxo-3,16-diazatricyclo-[14.3.0.0^4,6]nonadec-7-en-14-yl}carbamic acid tert-butyl ester] | < 50 | < 50
8 | CC(C)(C)OC(=O)N[C@H]1CCCCC/C=C\[C@@H]2C[C@@]2(C(=O)NS(=O)(=O)C2CC2)NC(=O)[C@@H]2C[C@@H](Oc3ccnc4ccccc34)CN2C1=O [Compound 29, (1S,4R,6S,14S,18R)-7-cis-[4-Cyclopropanesulfonylaminocarbonyl-2,15-dioxo-18-(quinolin-4-yloxy)-3,16-diazatricyclo[14.3.0.0^4,6]nonadec-7-en-14-yl]carbamic acid tert-butyl ester] | < 50 | < 50
9 | CC(C)(C)OC(=O)N[C@H]1CCCCC/C=C\[C@@H]2C[C@@]2(C(=O)NS(C)(=O)=O)NC(=O)[C@@H]2C[C@@H](Oc3ccnc4ccccc34)CN2C1=O [Compound 30, (1S,4R,6S,14S,18R)-7-cis-[4-Methanesulfonylaminocarbonyl-2,15-dioxo-18-(quinolin-4-yloxy)-3,16-diazatricyclo[14.3.0.0^4,6]nonadec-7-en-14-yl]-carbamic acid tert-butyl ester] | < 50 | < 5000
10 | COc1ccc2c(O[C@@H]3C[C@H]4C(=O)N[C@]5(C(=O)NS(=O)(=O)C6CC6)CC5/C=C\CCCSC[C@H](NC(=O)OC(C)(C)C)C(=O)N4C3)cc(-c3ccccc3)nc2c1 (stereo partly drawn) [Compound 31, (1S,4R,6S,14S,18R)-7-cis-[4-Cyclopropanesulfonylaminocarbonyl-18-(7-methoxy-2-phenyl-quinolin-4-yloxy)-2,15-dioxo-12-thia-3,16-diazatricyclo[14.3.0.0^4,6]nonadec-7-en-14-yl]-carbamic acid tert-butyl ester] | < 50 | < 50
